In patent publication US12630829B2, “Gene encoding cytochrome P450 and use thereof” (KUMIAI CHEMICAL INDUSTRY CO., LTD., priority 2020, dated 2026):

Assays:
[1] = test system: wild type Arabidopsis thaliana; assay: Fenquinotrione sensitivity test on MS solid medium, wild type; type: in vivo; settings: 10 nM in MS solid medium, 22° C., about 10 days, evaluated subjectively
Procedure: With a sensitivity difference from wild type Arabidopsis thaliana used as an index, it was verified whether or not the created transformant had resistance to fenquinotrione. In MS solid media in each of which fenquinotrione was added to a final concentration of 10,000, 1,000, 100, 10, or 1 nM, or 0.1% of DMSO was added as an untreated plot, sterilized seeds of Arabidopsis thaliana having AK454412 forced expression and wild type Arabidopsis thaliana were each seeded, and grown at 22° C. for about 10 days. The sensitivity to this drug was evaluated subjectively in accordance with the degree of chlorosis of acting symptom. The results are illustrated in FIG. 9. FIG. 9(A) illustrates results obtained in using the wild type Arabidopsis thaliana, and FIG. 9(B) illustrates results obtained in using the Arabidopsis thaliana having AK454412 forced expression.

[2] = test system: KJ541960 (wheat-derived P450) co-expressed with TaCPR; assay: In vitro drug metabolism test of KJ541960 protein against fenquinotrione; type: in vitro ADME; settings: test method and conditions of Example 1; KJ541960 reaction plot
Procedure: (§1) It was verified by in vitro metabolism test whether or not a novel wheat-derived P450 of AK454412 is involved in herbicide metabolism. As a compound having high safety against wheat, fenquinotrione was used. […] A solution after completing the enzymatic reaction was centrifuged at 15,000 rpm for 1 minute, and the obtained supernatant was filtered through a 0.45 μm filter and then tested by LC/MS. LC/MS conditions were as follows:
Therefore, synthesis of an artificial gene of the KJ541960 gene was requested of Eurofins Genomics K.K. Here, NdeI and EcoRI sites were respectively added to the 5′ and 3′ terminals of the CDS sequence of the gene. A DNA fragment of the KJ541960 gene was cleaved through NdeI/EcoRI treatment from the synthesized pEX-A2J2-KJ541960 plasmid, and was linked to pET-22b(+) vector, similarly having been subjected to NdeI/EcoRI treatment, with Ligation-Convenience Kit, and thus pET-22b-KJ541960 was produced (FIG. 13). […]
It is noted that the KJ541960 gene, synthesized as the artificial gene, was set to encode an amino acid sequence, in which a membrane anchoring region of the 35 N-terminal amino acid residues was removed, and the 6β sequence (MAKKTSS) was added as the same conditions as in the AK454412 gene. […] Besides, the intensity of the peak of the detected demethylated product was substantially the same in both the reaction plots. […]

[3] = test system: AK369081 (barley-derived P450) co-expressed with TaCPR; assay: In vitro drug metabolism test of AK369081 protein against fenquinotrione; type: in vitro ADME; settings: test method and conditions of Example 1; AK369081 reaction plot
Procedure: as §1
Specifically, in the same manner as in KJ541960, recombinant proteins of these genes were prepared to evaluate, by in vitro test, whether or not these have fenquinotrione metabolic activity. First, an expression vector was designed by inserting, between NdeI and EcoRI sites of pET-22b(+), a nucleotide sequence, which encoded a sequence obtained by removing the transmembrane region (AK375492: 35 N-terminal amino acid residues, AK369081: 37 N-terminal amino acid residues) of each of the genes of Accession Nos. AK375492 and AK369081, and adding the 6β sequence (MAKKTSS) to the N-terminal, and synthesis of artificial genes was requested of GenScript. Each of the synthesized expression vectors (6β AK375492 in pET-22b, 6β AK369081 in pET-22b) was co-introduced, together with pACYC-del31_TaCPR, into E. coli BL21 star (DE3) strain for protein expression (FIG. 15). […]

## COc1ccc(-n2c(=O)c(C(=O)C3C(=O)CCCC3=O)nc3c(Cl)cccc32)cc1 [fenquinotrione]
[1]
  wild type Arabidopsis thaliana having chlorosis: ≥ 90%
[2]
  metabolism of fenquinotrione (production of demethylated product as index): a parent peak of fenquinotrione was reduced, and a peak of the demethylated product appeared
[3]
  metabolism of fenquinotrione (generation of demethylated product as index): a peak of the demethylated product (RT=in the vicinity of 15.1) appeared
